# Results taken from patent US9908872B2, “Methods to treat lymphoplasmacytic lymphoma” (Dana-Farber Cancer Institute, Inc., priority 2013, dated 2018).
# Values joined by “and” are separate entries in the source; they are usually repeats but may differ in a detail not shown here. Equal values may be shown once.
# Assays:
# [1] = system: BCWM.1; assay: CellTiter-Glo cell viability assay; format: cell-based; settings: 72 hours, cell survival
# Experimental: (§1) CellTiter-Glo® Luminescent cell viability assay (Promega) was used to assess cell survival following treatment with the compounds described. Cells were seeded into 384 well plates with the EL406 Combination Washer Dispenser (BioTek Instruments, Inc.), and the compounds were injected into the cells culture media with the JANUS Automated Workstation (PerkinElmer Inc.). Cells were treated with a series diluted inhibitors (20˜0.04 μM) for 72 hours at 37° C. Luminescent measurement is performed using the 2104 Envision® Multilabel Reader (PerkinElmer Inc.).
# [2] = system: MWCL-1; assay: CellTiter-Glo cell viability assay; format: cell-based; settings: 72 hours, cell survival
# Experimental: as §1
# [3] = system: OCI-Ly3; assay: CellTiter-Glo cell viability assay; format: cell-based; settings: Homo sapiens, 72 hours, cell survival
# Experimental: as §1
# [4] = system: RPCIWM-1; assay: CellTiter-Glo cell viability assay; format: cell-based; settings: 72 hours, cell survival
# Experimental: as §1
# [5] = system: Ramos; assay: CellTiter-Glo cell viability assay; format: cell-based; settings: 72 hours, cell survival
# Experimental: as §1
# [6] = system: ABL, ARG; assay: KiNativ profiling, A375 cells; format: binding, Homo sapiens; settings: 1 μM, labeling site Activation Loop
# [7] = system: AMPKa1, AMPKa2; assay: KiNativ profiling, A375 cells; format: binding, Homo sapiens; settings: 1 μM, labeling site Lys1
# [8] = system: CaMK2a, CaMK2b, CaMK2d, CaMK2g; assay: KiNativ profiling, A375 cells; format: binding, Homo sapiens; settings: 1 μM, labeling site Lys2
# [9] = system: CDK11, CDK8; assay: KiNativ profiling, A375 cells; format: binding, Homo sapiens; settings: 1 μM, labeling site Lys2
# [10] = system: FYN, SRC, YES; assay: KiNativ profiling, A375 cells; format: binding, Homo sapiens; settings: 1 μM, labeling site Activation Loop
# [11] = system: IKKe, TBK1; assay: KiNativ profiling, A375 cells; format: binding, Homo sapiens; settings: 1 μM, labeling site Lys2
# [12] = system: JNK1, JNK2, JNK3; assay: KiNativ profiling, A375 cells; format: binding, Homo sapiens; settings: 1 μM, labeling site Lys2
# [13] = system: LYN; format: binding, Homo sapiens
# [14] = system: MAP2K1, MAP2K2; assay: KiNativ profiling, A375 cells; format: binding, Homo sapiens; settings: 1 μM, labeling site Lys2
# [15] = system: MAP3K2, MAP3K3; assay: KiNativ profiling, A375 cells; format: binding, Homo sapiens; settings: 1 μM, labeling site Lys2
# [16] = system: MARK1, MARK2; assay: KiNativ profiling, A375 cells; format: binding, Homo sapiens; settings: 1 μM, labeling site Lys1
# [17] = system: MARK2, MARK3; assay: KiNativ profiling, A375 cells; format: binding, Homo sapiens; settings: 1 μM, labeling site Lys2
# [18] = system: MST4, YSK1; assay: KiNativ profiling, A375 cells; format: binding, Homo sapiens; settings: 1 μM, labeling site Lys2
# [19] = system: NEK6, NEK7; assay: KiNativ profiling, A375 cells; format: binding, Homo sapiens; settings: 1 μM, labeling site Lys2
# [20] = system: p38d, p38g; assay: KiNativ profiling, A375 cells; format: binding, Homo sapiens; settings: 1 μM, labeling site Lys2
# [21] = system: PITSLRE; assay: KiNativ profiling, A375 cells; format: binding, Homo sapiens; settings: 1 μM, labeling site Lys2
# [22] = system: PKD1, PKD2; assay: KiNativ profiling, A375 cells; format: binding, Homo sapiens; settings: 1 μM, labeling site Lys2
# [23] = system: ROCK1, ROCK2; assay: KiNativ profiling, A375 cells; format: binding, Homo sapiens; settings: 1 μM, labeling site Lys2
# [24] = system: TAO1, TAO3; assay: KiNativ profiling, A375 cells; format: binding, Homo sapiens; settings: 1 μM, labeling site Lys2
# [25] = system: ZAK; format: binding, Homo sapiens
# [26] = system: ZC1/HGK, ZC2/TNIK, ZC3/MINK; assay: KiNativ profiling, A375 cells; format: binding, Homo sapiens; settings: 1 μM, labeling site Lys2
# [27] = system: OCI-Ly19; assay: CellTiter-Glo cell viability assay; format: cell-based; settings: 72 hours, cell survival
# Experimental: as §1
structure (smiles),measurement,setting,value
"CCN1CCN(Cc2ccc(NC(=O)c3ccc(Cl)c(NC(=O)c4cncc(-c5cccs5)c4)c3)cc2C(F)(F)F)CC1 [I-2, N-(2-chloro-5-((4-((4-ethylpiperazin-1-yl)methyl)-3-(trifluoromethyl)phenyl)carbamoyl)phenyl)-5-(thiophen-2-yl)nicotinamide]",EC50,[1]; BCWM1,12 nM
same,EC50,[2],16 nM
same,EC50,[3],161 nM
same,EC50,[4],110 nM
same,EC50,"[5]; Homo sapiens, Ramos",60 nM
"Cc1ccc(C(=O)Nc2cccc(C(C)(C)C#N)c2)cc1NC(=O)c1cncc(-c2cccs2)c1 [I-6, N-(5-((3-(2-cyanopropan-2-yl)phenyl)carbamoyl)-2-methylphenyl)-5-(thiophen-2-yl)nicotinamide]","KiNativ inhibition of ABL, ARG",[6],>90%
same,"KiNativ inhibition of AMPKa1, AMPKa2",[7],15.3%
same,"KiNativ inhibition of CaMK2a, CaMK2b, CaMK2d, CaMK2g",[8],0.7%
same,"KiNativ inhibition of CDK11, CDK8",[9],20.7%
same,"KiNativ inhibition of FYN, SRC, YES",[10],55.7%
same,"KiNativ inhibition of IKKe, TBK1",[11],24.8%
same,"KiNativ inhibition of JNK1, JNK2, JNK3",[12],11.7%
same,KiNativ inhibition of LYN,[13],87.6%
same,"KiNativ inhibition of MAP2K1, MAP2K2",[14],4.1%
same,"KiNativ inhibition of MAP3K2, MAP3K3",[15],-15.3%
same,"KiNativ inhibition of MARK1, MARK2",[16],-4.9%
same,"KiNativ inhibition of MARK2, MARK3",[17],17.2%
same,"KiNativ inhibition of MST4, YSK1",[18],22%
same,"KiNativ inhibition of NEK6, NEK7",[19],-3.7%
same,"KiNativ inhibition of p38d, p38g",[20],17.8%
same,KiNativ inhibition of PITSLRE,[21],1.9%
same,"KiNativ inhibition of PKD1, PKD2",[22],-2.5%
same,"KiNativ inhibition of ROCK1, ROCK2",[23],12.7%
same,"KiNativ inhibition of TAO1, TAO3",[24],11.9%
same,KiNativ inhibition of ZAK,[25],>95%
same,"KiNativ inhibition of ZC1/HGK, ZC2/TNIK, ZC3/MINK",[26],27%
CCN1CCN(Cc2ccc(NC(=O)c3ccc(C)c(NC(=O)c4cncc(-c5cnoc5)c4)c3)cc2C(F)(F)F)CC1 [I-8],EC50,[27],56 nM
same,EC50,[5],329 nM
CCN1CCN(Cc2ccc(NC(=O)c3ccc(C)c(NC(=O)c4cncc(-c5cnn(C)c5)c4)c3)cc2C(F)(F)F)CC1 [I-9],EC50,[1],542 nM and 305 nM
same,EC50,[2],294 nM and 281 nM
same,EC50,[27],2650 nM
same,EC50,[5],7470 nM
